The values below come from patent US20250073249A1, “STEROID COMPOUND, AND PREPARATION METHOD THEREFOR AND USE THEREOF” (SHANGHAI INSTITUTE OF MATERIA MEDICA, CHINESE ACADEMY OF …, priority 2022, published 2025).

The target in one series is T1, wild-type AR (Homo sapiens, UniProt P10275).
T1 construct: expressed in transfected cells; host or cells: HEK293
T1 sequence (P10275 1-920): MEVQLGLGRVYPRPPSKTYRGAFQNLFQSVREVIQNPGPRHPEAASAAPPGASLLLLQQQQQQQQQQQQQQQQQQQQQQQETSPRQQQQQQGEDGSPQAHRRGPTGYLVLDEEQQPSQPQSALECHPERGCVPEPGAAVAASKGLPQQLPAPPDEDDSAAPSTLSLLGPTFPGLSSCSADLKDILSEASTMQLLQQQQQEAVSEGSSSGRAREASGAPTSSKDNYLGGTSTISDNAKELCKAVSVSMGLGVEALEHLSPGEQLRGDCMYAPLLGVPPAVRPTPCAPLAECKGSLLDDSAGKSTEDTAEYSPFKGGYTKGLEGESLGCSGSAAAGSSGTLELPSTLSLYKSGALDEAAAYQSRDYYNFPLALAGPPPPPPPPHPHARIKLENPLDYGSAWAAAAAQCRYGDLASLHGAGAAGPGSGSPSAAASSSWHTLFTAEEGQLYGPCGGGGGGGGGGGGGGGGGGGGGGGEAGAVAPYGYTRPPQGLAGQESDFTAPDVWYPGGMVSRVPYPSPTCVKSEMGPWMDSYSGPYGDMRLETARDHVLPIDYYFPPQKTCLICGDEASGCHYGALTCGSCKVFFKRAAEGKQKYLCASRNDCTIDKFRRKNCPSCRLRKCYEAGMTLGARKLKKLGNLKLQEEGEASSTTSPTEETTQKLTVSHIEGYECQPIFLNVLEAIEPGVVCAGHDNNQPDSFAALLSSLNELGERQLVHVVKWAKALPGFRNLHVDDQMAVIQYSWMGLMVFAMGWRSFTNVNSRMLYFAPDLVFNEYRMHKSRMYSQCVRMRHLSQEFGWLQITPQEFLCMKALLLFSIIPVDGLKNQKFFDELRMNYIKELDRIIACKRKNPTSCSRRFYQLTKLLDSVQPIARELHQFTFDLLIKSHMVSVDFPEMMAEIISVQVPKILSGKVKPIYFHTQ
In words: Wild-type AR antagonist activity test (luciferase reporter in HEK293 cells). It counts as cell-based. The following applies: for IC50: HEK293 cells, luciferase expression, DHT 1.5 nM, 24 hours; for AR antagonist activity, times higher than that of the control enzalutamide: ratio to enzalutamide IC50. How it is done:
HEK293 cells were cultured in DMEM containing 10% fetal bovine serum (FBS) at 37° C. with 5% CO2. The cells were then digested with trypsin and counted. A 10 μL/well transfection solution was prepared in opti-MEM containing 5 ng androgen receptor clone, 100 ng pGL4.36 vector, and 315 nL fugene. […] The diluted cell suspension was seeded into 96-well plates at 90 μL (40,000 cells/well), and the plates were incubated for 24 hours. Then, 10 μL of drug solution (including gradient diluted compounds or DMSO) was added, and the plates were incubated for 30 minutes. […] After 24 hours of incubation, 100 μL of Steady-Glo was added to each well of the plate, the plate was shaken at room temperature for 20 minutes, and read on an Envision.
For orientation: Reporter assays use an easily measured gene product as a stand-in for the process of interest.

For a further series, the target named is T2, AR (Homo sapiens, UniProt P10275, T878A).
T2 construct: endogenous in cells; host or cells: LNCaP
T2 sequence (P10275 1-920 T878A): T1 sequence (P10275 1-920) with T878A
In words: In vitro AR degradation activity test in LNCaP cells (ELISA, OD450). The following applies: LNCaP cells, 24 hours. It counts as cell-based. As to the method: The cells were then digested with trypsin and counted using an automated cell counter. The cell suspension was diluted to the desired density in growth medium. The cell suspension was then seeded into 96-well plates at 100 μL per well, and the plates were incubated at 37° C. with 5% CO2 for 24 hours. The compounds were then diluted 200-fold to the final concentration with DMSO or 3-fold to the final concentration with culture medium. 50 μL of compound solution was transferred to the 96-well plate and incubated at 37° C. for 24 hours. After 24 hours of incubation, the cell plate was washed 3 times with DPBS, 100 μL of 1× lysis buffer was added to each well, and placed on ice for 30 minutes. The supernatant was collected. The protein in the cell lysate samples was quantified and then diluted to the required concentration. 100 μL of cell lysate sample was added to the appropriate wells, sealed with tape and pressed firmly on top of the wells, and the plate was incubated at 37° C. for 2 hours. The plate contents were then discarded, and washed 4 times with 1× wash buffer, 200 μL per well each time. 100 μL of reconstituted detection antibody was then added, the plate was sealed with tape and incubated at 37° C. for 1 hour. The aspiration/wash step was then repeated, 100 μL of reconstituted HRP-Linked secondary antibody was added to each well, the plate was sealed with tape and incubated at 37° C. for 30 minutes. The aspiration/wash step was then repeated, 100 μL of substrate solution was added to each well and incubated at 37° C. for 10 minutes, and finally 100 μL of stop solution was added to each well. The plate was gently tapped to ensure thorough mixing, and the OD450 nm was recorded.
Degradation rate (%)=(OD450_max−OD450_sample)/(OD450_max−OD450_min)×100,plotted using GraphPad Prism 5 software, and IC50 is calculated using SPSS software.
A general note: ELISA stands for enzyme-linked immunosorbent assay.

Series [1] concerns 22RV1 prostate cancer cells. Briefly: Anti-proliferative activity against resistant 22RV1 cells expressing AR-V7. It counts as cell-based. To be noted: for Activity against tumor cells expressing AR splice variants: 22RV1 cells, in words; for IC50: Homo sapiens, 22RV1 cells expressing AR-V7 splice variant, read-out: Antiproliferative activity IC50. As to the method:
(§1) The cells were then digested with trypsin and counted using an automated cell counter to determine cell density. The cell suspension was diluted to the desired density in growth medium. Subsequently, 100 μL of the cell suspension was seeded into 96-well plates and incubated at 37° C. with 5% CO2 for 24 hours. 10 μL of drug solution (including 3-fold serial dilutions of compounds or DMSO) was added to each well, and the plates were incubated at 37° C. with 5% CO2 for 6 days. Prior to measurement, the assay plates were equilibrated to room temperature. 40 μL of CellTiter-Glo® reagent was added to each well. The plates were mixed on an orbital shaker for 2 minutes to induce cell lysis. After incubation at room temperature for 60 minutes to stabilize the luminescence signal, the plates were read on an Envision plate reader.
The experimental procedure was essentially the same as that for LNCaP cells.

A further series has as its system LNCaP cells. In words: In vitro LNCaP cell proliferation inhibition test (CellTiter-Glo). To be noted: for Maximum Inhibition (%) / IC50: 6 days; for IC50: Homo sapiens, read-out: Anti-proliferative activity IC50. It counts as cell-based. How it is done: as §1
Series [2] in a line: In vivo pharmacokinetics in rats after oral gavage. The following applies: male SD rats, PO 10 mg/kg; for AUC(0-inf) / AUC(0-t) / half-life / Cmax / tmax: rat, plasma; for Cmax: read-out: Cmax; for tmax: read-out: tmax. As to the method: Male SD rats were randomly divided into 6 groups, 3 rats per group. The rats were fasted but not water-deprived for 12-14 h one day before dosing. The test samples were then dissolved in a solvent of 5% DMSO+30% PEG400+65% (0.5% MC) and administered by gavage at 10 mg/kg. Food was provided 4 h after dosing. Blood samples (0.10 mL) were collected via the orbital sinus at 0, 15, 30 min, 1, 2, 4, 6, 8, and 24 h, with EDTA-K2 as anticoagulant. Blood samples were placed on ice after collection and centrifuged to separate plasma within 30 minutes (centrifugation conditions: 5000 rpm, 10 minutes, 4° C.). 50.0 μL of plasma sample (taken from −80° C. freezer, thawed naturally at room temperature and vortexed for 30 seconds) was added to a 1.5 mL centrifuge tube, followed by addition of 500 μL internal standard solution (methanol (TEDIA, HPLC grade), acetonitrile (TEDIA, HPLC grade), formic acid (FA, ACROS ORGANICS, HPLC grade), water was laboratory-made ultrapure water (100.0 ng·mL−1)). The mixture was vortexed for 60 seconds and centrifuged for 3 minutes (centrifugal force 12000 rpm). 100 μL of the supernatant was transferred to a 96-well injection plate containing an equal volume of water, mixed by shaking, and analyzed by LC-MS/MS with an injection volume of 10 μL. The data acquisition and control system software was Analyst 1.5.1 software (Applied Biosystem). The chromatographic sample peaks were integrated automatically. The ratio of sample peak area to internal standard peak area was used as an indicator for regression with sample concentration.
The pharmacokinetic parameters of representative compounds of the present invention were tested in male SD rats after oral gavage administration at 10 mg/kg according to the above conventional method to examine the pharmacokinetic characteristics of the compounds of the present invention in rats.

Usually IC50 stands for the concentration that gives 50% inhibition. A word on the DC50: it is the midpoint of the concentration-degradation curve. A word on the AUC(0-inf): it is total exposure, with the tail of the curve extrapolated. The low end stands for low exposure, the high end for high exposure. As usually defined, the AUC(0-t) is exposure summed from dosing to a finite time, without extrapolation to infinity. A lower AUC(0-t) goes with less exposure. One may read the half-life as the time in which the quantity being followed falls by half. Lower therefore signals fast loss. Broadly, the Cmax is the highest concentration seen after dosing.

Residue numbers refer to the chain shown, from its start.

As for `Cc1cn(C2=CCC3C4CC=C5C[C@@H](NC(=O)c6ccc([N+](=O)[O-])cc6)CC[C@]5(C)C4CC[C@]23C)cn1` (stereo partly drawn) [Compound 34, N-((3S,10R,13S)-17-(4-methyl-1H-imidazol-1-yl)-10,13-dimethyl-2,3,4,7,8,9,10,11,12,13,14,15-dodecahydro-1H-cyclopenta[a]phenanthren-3-yl)-4-nitrobenzamide], on wild-type AR, the IC50 was determined as 70.6 nM and the “AR antagonist activity, times higher than that of the control enzalutamide” value is 6.2 times. This molecule also showed a DC50 at AR of 2600 nM.

With `CNC(=O)c1ccc(N2C(=S)N(c3cnc(C#N)c(C(F)(F)F)c3)C(=O)C23CCC3)cc1F` [Apalutamide, apalutamide], in series [1], the “Activity against tumor cells expressing AR splice variants” value was “no activity” and the IC50 is > 10000 nM.

With `C[C@]12CC[C@H](NC(=O)c3ccncc3)CC1=CCC1C2CC[C@]2(C)C(n3ccnc3)=CCC12` (stereo partly drawn) [Compound 17, N-((3S,10R,13S)-17-(1H-imidazol-1-yl)-10,13-dimethyl-2,3,4,7,8,9,10,11,12,13,14,15-dodecahydro-1H-cyclopenta[a]phenanthren-3-yl)isonicotinamide], the DC50 at AR stood at 1980 nM. Besides, in the series on LNCaP cells, the “Maximum Inhibition (%)” value is reported as 96.99% and the IC50 worked out at 317 nM. For the same molecule, the “Anti-proliferative activity, fold improvement compared to abiraterone” value in the series on LNCaP cells (ratio to abiraterone IC50) came to 8.8 fold. In addition, in series [2], the Kel is 0.112 h⁻¹, the MRTPO is recorded as 15.5 h, the AUC(0-inf) was found to be 65600 ng·h/mL and the area under the curve AUC(0-t) is 28800 ng·h/mL. Further, in series [2], the half-life is 10 h, the Cmax was 4500 ng/mL and the tmax is 2 h.

With `CC(O)c1cc(C(=O)N[C@@H](C)Cn2ccc(-c3ccc(C#N)c(Cl)c3)n2)[nH]n1` (stereo partly shown) [Darolutamide, darolutamide], in series [1], the “Activity against tumor cells expressing AR splice variants” value is given as “no activity” and the half-maximal inhibitory concentration (IC50) was > 10000 nM.

`C[C@]12CC[C@H](NC(=O)c3ccnnc3)CC1=CCC1C2CC[C@]2(C)C(n3ccnc3)=CCC12` (stereo partly shown) [Compound 16]: at AR, the 50% degradation concentration (DC50) stood at 2760 nM. Besides, in the series on LNCaP cells, the “Maximum Inhibition (%)” value was 92.41% and the IC50 was 382 nM. In series [2], the Kel worked out at 0.296 h⁻¹, the MRTPO is reported as 6.25 h, the AUC(0-inf) was found to be 37500 ng·h/mL and the AUC(0-t) came out at 37400 ng·h/mL. Also, in series [2], the half-life is 2.36 h, the Cmax was determined as 3240 ng/mL and the tmax worked out at 4 h.

For the molecule `Cc1cn(C2=CCC3C4CC=C5C[C@@H](NC(=O)c6ccnnc6)CC[C@]5(C)C4CC[C@]23C)cn1` (stereo partly shown) [Compound 13], at wild-type AR, the IC50 stood at 244 nM and the “AR antagonist activity, times higher than that of the control enzalutamide” value was determined as 1.8 times. The DC50 on AR is 2080 nM. Further, in the series on LNCaP cells, the “Maximum Inhibition (%)” value was determined as 96.97% and the IC50 was found to be 466 nM. Moreover, the “Anti-tumor activity and efficacy compared to enzalutamide” value in the series with LNCaP cells (in words) is listed as “comparable anti-tumor activity but significantly superior anti-tumor efficacy compared to enzalutamide”.

Molecule `C[C@]12CC[C@H](NC(=O)c3ccnnc3)CC1=CCC1C2CC[C@]2(C)C(c3cncnc3)=CCC12` (stereo partly shown) [Compound 10] returned a DC50 at AR of 4250 nM. In the series with LNCaP cells, the “Maximum Inhibition (%)” value is listed as 99.74% and the IC50 is 820 nM.
